From ChEMBL document CHEMBL6153137, “Design, Synthesis, and Biological Evaluation of Novel Orally Available Covalent CDK12/13 Dual Inhibitors for the Treatment of Tumors” (J Med Chem, 2025)
pIC50: −log10 of the molar value. In brackets after ≈: the same amount, converted by molar mass. Activity calls are given as the source filed them. The calls are words filed in the database; no cut-off is given here.

Tests used:
[1] = Half life in male Sprague-Dawley rat at 10 mg/kg, po administered via gavage and measured on day 1; assay type: ADME, organism-based; details: in vivo, time 1 day
[2] = GSH reactivity assessed as half life to adduct formation at 0.1 uM by LC-MS/MS analysis; assay type: physicochemical
[3] = system: KARPAS-299; assay: Antiproliferative activity against human KARPAS-299 cells assessed as reduction in cell viability incubated for 7 days by CellTiter-Glo reagent based luminescence analysis; assay type: functional; details: KARPAS-299, 168 h
[4] = biological target: Cyclin-dependent kinase 7 (Homo sapiens) (UniProt P50613); assay: Inhibition of CDK7 in human SUM149PT cells assessed as reduction in level of phosphorylation of Ser5 on RNA Pol II CTD at 500 nM incubated for 12 hrs followed by drug wash-out and measured after 72 hrs by western blot analysis; assay type: cell-based
Chain of Cyclin-dependent kinase 7 (Homo sapiens) (P50613 whole entry): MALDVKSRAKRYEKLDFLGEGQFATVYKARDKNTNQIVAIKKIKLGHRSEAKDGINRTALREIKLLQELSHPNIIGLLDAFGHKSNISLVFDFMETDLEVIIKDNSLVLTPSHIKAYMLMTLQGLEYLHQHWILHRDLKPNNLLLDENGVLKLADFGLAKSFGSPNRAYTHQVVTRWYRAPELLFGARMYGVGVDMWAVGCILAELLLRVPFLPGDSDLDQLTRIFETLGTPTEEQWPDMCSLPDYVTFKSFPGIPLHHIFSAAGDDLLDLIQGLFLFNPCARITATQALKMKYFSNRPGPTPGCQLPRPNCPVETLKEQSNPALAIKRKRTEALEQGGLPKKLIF

[5] = biological target: CDK3/Cyclin E (Homo sapiens) (UniProt P24864+Q00526); assay: Inhibition of human recombinant N-terminal GST-tagged CDK3/N-terminal 6X His-tagged Cyclin E1 expressed in HEP Sf9 cells using ATP as substrate at 2 uM measured after 60 mins by ADP-Glo reagent based luminescence analysis
Chain of CDK3/Cyclin E (Homo sapiens) (P24864 whole entry, looked up): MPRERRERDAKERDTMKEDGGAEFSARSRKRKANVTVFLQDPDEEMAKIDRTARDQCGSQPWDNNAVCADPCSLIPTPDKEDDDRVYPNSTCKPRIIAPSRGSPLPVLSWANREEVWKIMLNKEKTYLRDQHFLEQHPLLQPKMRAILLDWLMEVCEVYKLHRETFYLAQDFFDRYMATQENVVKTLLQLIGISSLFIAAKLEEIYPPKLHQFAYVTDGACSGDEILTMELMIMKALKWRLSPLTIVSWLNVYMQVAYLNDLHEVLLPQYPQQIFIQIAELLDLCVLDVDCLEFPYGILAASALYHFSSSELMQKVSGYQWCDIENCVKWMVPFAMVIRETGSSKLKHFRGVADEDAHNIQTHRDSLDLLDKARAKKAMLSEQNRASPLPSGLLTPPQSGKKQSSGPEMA
Chain of CDK3/Cyclin E (Homo sapiens) (Q00526 whole entry, looked up): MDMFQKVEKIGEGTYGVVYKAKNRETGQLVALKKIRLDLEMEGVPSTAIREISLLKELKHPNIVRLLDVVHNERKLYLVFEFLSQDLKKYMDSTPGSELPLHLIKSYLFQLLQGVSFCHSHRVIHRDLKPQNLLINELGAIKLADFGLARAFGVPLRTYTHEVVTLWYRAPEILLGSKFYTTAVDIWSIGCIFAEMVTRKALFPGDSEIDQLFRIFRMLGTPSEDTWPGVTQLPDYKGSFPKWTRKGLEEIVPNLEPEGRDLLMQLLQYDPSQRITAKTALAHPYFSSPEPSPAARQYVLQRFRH

[6] = biological target: Cyclin-dependent kinase 13/Cyclin-K (Homo sapiens, UniProt Q14004); assay: Inhibition of human recombinant N-terminal GST-tagged CDK13/N-terminal FLAG and C-terminal His-tagged Cyclin K expressed in HEP Sf9 cells using ATP as substrate measured after 60 mins by ADP-Glo reagent based luminescence assay
Chain of Cyclin-dependent kinase 13/Cyclin-K (Q14004 whole entry): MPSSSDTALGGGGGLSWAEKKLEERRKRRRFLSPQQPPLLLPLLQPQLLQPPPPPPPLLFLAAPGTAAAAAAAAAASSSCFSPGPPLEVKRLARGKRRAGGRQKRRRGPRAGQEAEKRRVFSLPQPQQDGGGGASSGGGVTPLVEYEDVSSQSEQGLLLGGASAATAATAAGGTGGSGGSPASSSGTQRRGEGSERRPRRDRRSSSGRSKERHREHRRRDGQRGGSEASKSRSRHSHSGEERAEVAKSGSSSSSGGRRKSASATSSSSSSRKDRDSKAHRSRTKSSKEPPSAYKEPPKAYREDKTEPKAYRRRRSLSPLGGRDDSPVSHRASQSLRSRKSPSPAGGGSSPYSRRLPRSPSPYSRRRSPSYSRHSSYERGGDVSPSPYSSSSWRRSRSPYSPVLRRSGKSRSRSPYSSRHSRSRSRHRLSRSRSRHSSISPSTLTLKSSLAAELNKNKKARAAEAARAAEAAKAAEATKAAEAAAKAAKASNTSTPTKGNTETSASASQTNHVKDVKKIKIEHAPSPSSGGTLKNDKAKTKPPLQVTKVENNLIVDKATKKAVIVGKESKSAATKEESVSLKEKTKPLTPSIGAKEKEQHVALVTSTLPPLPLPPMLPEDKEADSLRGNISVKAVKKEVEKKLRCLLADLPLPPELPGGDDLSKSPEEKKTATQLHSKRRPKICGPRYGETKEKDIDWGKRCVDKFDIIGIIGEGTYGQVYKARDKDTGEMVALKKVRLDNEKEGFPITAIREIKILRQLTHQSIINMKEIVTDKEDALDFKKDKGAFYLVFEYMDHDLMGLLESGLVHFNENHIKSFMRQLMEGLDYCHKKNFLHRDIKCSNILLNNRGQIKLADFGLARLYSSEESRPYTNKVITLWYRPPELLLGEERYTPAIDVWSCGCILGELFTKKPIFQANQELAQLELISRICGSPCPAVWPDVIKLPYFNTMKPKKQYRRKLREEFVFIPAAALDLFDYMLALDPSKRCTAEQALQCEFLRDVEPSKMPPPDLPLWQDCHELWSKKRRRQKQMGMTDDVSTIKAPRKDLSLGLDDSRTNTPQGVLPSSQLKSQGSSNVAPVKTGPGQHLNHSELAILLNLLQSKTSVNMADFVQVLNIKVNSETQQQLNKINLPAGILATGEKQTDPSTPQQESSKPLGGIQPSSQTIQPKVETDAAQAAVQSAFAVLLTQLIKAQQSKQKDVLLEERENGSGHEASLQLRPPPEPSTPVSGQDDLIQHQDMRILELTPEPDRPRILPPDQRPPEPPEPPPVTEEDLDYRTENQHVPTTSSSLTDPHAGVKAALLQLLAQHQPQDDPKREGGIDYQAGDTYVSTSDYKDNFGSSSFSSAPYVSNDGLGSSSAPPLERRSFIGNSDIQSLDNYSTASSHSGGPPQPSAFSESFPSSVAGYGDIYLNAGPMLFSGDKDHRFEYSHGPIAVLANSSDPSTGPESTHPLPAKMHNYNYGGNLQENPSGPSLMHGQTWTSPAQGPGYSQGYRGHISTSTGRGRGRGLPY
Chain of Cyclin-dependent kinase 13/Cyclin-K (O75909 whole entry, further chain): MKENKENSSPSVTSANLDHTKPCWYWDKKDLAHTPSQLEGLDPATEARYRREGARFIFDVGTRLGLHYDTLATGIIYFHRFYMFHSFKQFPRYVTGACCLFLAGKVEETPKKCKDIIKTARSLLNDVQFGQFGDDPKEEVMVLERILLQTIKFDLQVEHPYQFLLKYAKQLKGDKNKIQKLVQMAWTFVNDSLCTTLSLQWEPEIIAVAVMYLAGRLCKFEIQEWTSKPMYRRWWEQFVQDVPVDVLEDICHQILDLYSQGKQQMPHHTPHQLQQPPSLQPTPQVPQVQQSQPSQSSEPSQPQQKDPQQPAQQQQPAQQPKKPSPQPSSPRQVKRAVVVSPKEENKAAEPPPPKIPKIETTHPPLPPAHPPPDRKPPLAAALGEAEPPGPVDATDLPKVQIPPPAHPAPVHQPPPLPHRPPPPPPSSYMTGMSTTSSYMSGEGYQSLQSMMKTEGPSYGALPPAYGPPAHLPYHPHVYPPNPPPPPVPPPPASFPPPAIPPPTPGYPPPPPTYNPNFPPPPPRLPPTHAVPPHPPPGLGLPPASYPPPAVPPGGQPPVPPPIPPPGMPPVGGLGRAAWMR

[7] = Kinetic solubility of the compound in phosphate buffer at pH 7.4 measured after 24 hrs by HPLC-UV analysis; assay type: physicochemical; details: read-out: Kinetic_solubility
[8] = biological target: Cytochrome P450 2C9 (Homo sapiens, UniProt P11712); assay: Inhibition of CYP2C9 in human liver microsomes assessed as inhibition of diclofenac-4-hydroxylation incubated for 10 mins in presence of NADPH by LC-MS/MS analysis; assay type: ADME, Microsome
Chain of Cytochrome P450 2C9 (P11712 whole entry): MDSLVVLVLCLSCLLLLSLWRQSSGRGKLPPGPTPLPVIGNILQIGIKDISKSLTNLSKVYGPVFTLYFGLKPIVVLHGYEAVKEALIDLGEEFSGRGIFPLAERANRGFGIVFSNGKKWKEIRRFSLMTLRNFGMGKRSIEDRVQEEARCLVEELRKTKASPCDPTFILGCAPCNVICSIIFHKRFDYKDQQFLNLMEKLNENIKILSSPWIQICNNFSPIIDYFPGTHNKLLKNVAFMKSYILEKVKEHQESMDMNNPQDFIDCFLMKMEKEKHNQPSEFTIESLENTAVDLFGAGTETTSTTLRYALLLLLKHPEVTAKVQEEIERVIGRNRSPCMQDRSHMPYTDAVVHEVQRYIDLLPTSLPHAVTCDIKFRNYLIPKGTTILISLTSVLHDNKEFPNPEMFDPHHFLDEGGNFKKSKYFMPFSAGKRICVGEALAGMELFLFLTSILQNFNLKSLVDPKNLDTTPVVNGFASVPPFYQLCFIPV

[9] = biological target: Cytochrome P450 2C19 (Homo sapiens, UniProt P33261); assay: Inhibition of CYP2C19 in human liver microsomes assessed as inhibition of S-mephenytoin-4-hydroxylation incubated for 10 mins in presence of NADPH by LC-MS/MS analysis; assay type: ADME, Microsome
Chain of Cytochrome P450 2C19 (P33261 whole entry): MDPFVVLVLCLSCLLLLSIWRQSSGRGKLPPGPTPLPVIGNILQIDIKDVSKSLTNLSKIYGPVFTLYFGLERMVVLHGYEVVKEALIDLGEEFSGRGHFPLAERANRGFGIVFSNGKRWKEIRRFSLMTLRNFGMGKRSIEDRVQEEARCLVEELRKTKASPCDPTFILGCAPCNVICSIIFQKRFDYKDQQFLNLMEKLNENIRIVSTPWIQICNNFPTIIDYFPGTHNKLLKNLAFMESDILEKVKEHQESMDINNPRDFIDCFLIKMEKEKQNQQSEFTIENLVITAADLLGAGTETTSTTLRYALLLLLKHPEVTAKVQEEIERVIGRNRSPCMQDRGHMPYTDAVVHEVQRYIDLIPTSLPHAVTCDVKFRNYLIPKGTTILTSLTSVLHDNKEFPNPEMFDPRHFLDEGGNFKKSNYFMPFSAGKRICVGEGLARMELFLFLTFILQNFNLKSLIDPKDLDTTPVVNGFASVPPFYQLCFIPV

[10] = system: SUM149PT; assay: Antitumor activity against human SUM149PT cells xenografted in Balb/c mouse assessed as inhibition of tumor growth at 30 mg/kg, po administered once daily via gavage and measured on day 20; assay type: functional; details: 480 h, time 20 day, read-out: TGI
[11] = Ratio of drug level in tumor to plasma in Balb/c mouse xenografted with human SUM149PT cells at 60 mg/kg, po administered via gavage and measured after 2 hrs; assay type: ADME, organism-based
[12] = system: MV4-11; assay: Antitumor activity against human MV4-11 cells xenografted in Balb/c nude mouse assessed as inhibition of tumor growth at 15 mg/kg, po administered once daily via gavage and measured on day 21; assay type: functional; details: MV4-11, 504 h, time 21 day, read-out: TGI
[13] = system: MV4-11; assay: Antitumor activity against human MV4-11 cells xenografted in Balb/c nude mouse assessed as inhibition of tumor growth at 30 mg/kg, po administered once daily via gavage and measured on day 21; assay type: functional; details: MV4-11, 504 h, time 21 day, read-out: TGI
[14] = AUC in Balb/c mouse xenografted with human MV4-11 cells at 15 mg/kg, po administered once daily via gavage; assay type: ADME, organism-based; details: in vivo
[15] = AUC in Balb/c mouse xenografted with human MV4-11 cells at 30 mg/kg, po administered once daily via gavage; assay type: ADME, organism-based; details: in vivo
[16] = Toxicity against Balb/c mouse xenografted with human MV4-11 cells assessed as effect on body weight at 15 to 30 mg/kg, po administered once daily via gavage and measured every 3 days for 3 weeks; assay type: organism-based; details: in vivo, 504 h, dose 15-30 mg/kg
[17] = system: Mus musculus; assay: In vivo inhibition of CDK12/13 in Balb/c mouse xenografted with human SUM149PT cells assessed as reduction in phosphorylation of Ser2 on RNA Pol II at 15 to 30 mg/kg, po administered once daily via gavage and measured at 4 hrs post-last drug dosage by western blot analysis; assay type: functional, organism-based; details: dose 15-30 mg/kg
[18] = Volume of distribution at steady state in Sprague-Dawley rat at 1 mg/kg, iv measured for 24 hrs by LC-MS/MS analysis; assay type: ADME, organism-based; details: in vivo, read-out: Vdss
[19] = Half life in Sprague-Dawley rat at 15 mg/kg, po measured for 24 hrs by LC-MS/MS analysis; assay type: ADME, organism-based; details: in vivo
[20] = Cmax in Sprague-Dawley rat at 15 mg/kg, po measured for 24 hrs by LC-MS/MS analysis; assay type: ADME, organism-based; details: in vivo
[21] = Oral bioavailability in Sprague-Dawley rat at 5 mg/kg measured for 24 hrs by LC-MS/MS analysis; assay type: ADME, organism-based; details: in vivo
[22] = Toxicity against Sprague-Dawley rat assessed as abnormalities at 5 to 15 mg/kg, po measured for 24 hrs; assay type: organism-based; details: in vivo, dose 5-15 mg/kg
[23] = Toxicity against male Sprague-Dawley rat assessed as effect on body weight at 10 to 20 mg/kg, po administered once daily via gavage for 28 days and measured twice a week; assay type: organism-based; details: in vivo, 672 h, dose 10-20 mg/kg, time 28 day
[24] = Toxicity against male Sprague-Dawley rat assessed as hypersalivation at 40 mg/kg, po administered once daily via gavage for 28 days; assay type: organism-based; details: in vivo, 672 h, time 28 day
[25] = Toxicity against female Sprague-Dawley rat assessed as effect on mean corpuscular volume at 7.5 to 30 mg/kg, po administered once daily via gavage for 28 days and measured on day 29; assay type: organism-based; details: in vivo, 696 h, dose 7.5-30 mg/kg, time 29 day
[26] = Toxicity against male Sprague-Dawley rat assessed as decrease in lymphocytes content at 10 to 40 mg/kg, po administered once daily via gavage for 28 days and measured on day 29; assay type: organism-based; details: in vivo, 696 h, dose 10-40 mg/kg, time 29 day
[27] = Toxicity against male Sprague-Dawley rat assessed as effect on creatinine level in blood at 10 to 40 mg/kg, po administered once daily via gavage for 28 days and measured on day 29; assay type: organism-based; details: in vivo, 696 h, dose 10-40 mg/kg, time 29 day
[28] = Toxicity against male Sprague-Dawley rat assessed as effect on glucose level in blood at 10 to 40 mg/kg, po administered once daily via gavage for 28 days and measured on day 29; assay type: organism-based; details: in vivo, 696 h, dose 10-40 mg/kg, time 29 day
[29] = Toxicity against male Sprague-Dawley rat assessed as effect on AST level in blood at 10 to 40 mg/kg, po administered once daily via gavage for 28 days and measured on day 29; assay type: organism-based; details: in vivo, 696 h, dose 10-40 mg/kg, time 29 day
[30] = Toxicity against male Sprague-Dawley rat assessed as effect on chlorine level in blood at 10 to 40 mg/kg, po administered once daily via gavage for 28 days and measured on day 29; assay type: organism-based; details: in vivo, 696 h, dose 10-40 mg/kg, time 29 day
[31] = Toxicity against female Sprague-Dawley rat assessed as effect on creatinine level in blood at 7.5 to 30 mg/kg, po administered once daily via gavage for 28 days and measured on day 29; assay type: organism-based; details: in vivo, 696 h, dose 7.5-30 mg/kg, time 29 day
[32] = Half life in male Sprague-Dawley rat at 10 mg/kg, po administered once daily via gavage for 28 days; assay type: ADME, organism-based; details: in vivo, time 28 day
[33] = AUC(0 to t) in male Sprague-Dawley rat at 40 mg/kg, po administered via gavage and measured on day 1; assay type: ADME, organism-based; details: in vivo, 24 h, time 1 day

C=CC(=O)N1CCc2c(ncnc2N2CC[C@@H](Nc3ncc(Cl)c(OC)n3)C2)C1
half-life [1]: 3.2 h
t1/2 [2]: 1.48 h
pIC50 [3]: 6.88
inhibition [4]: inactive
inhibition [5]: 46%
pIC50 [6]: 6.95
solubility kinetic at 24 h [7]: 59.4 µg/mL (≈ 143 µM)
pIC50 [8]: < 4.30
pIC50 [9]: < 4.30
inhibition in vivo at 30 mg/kg [10]: 101%
Kp at 2 h [11]: 0.42
inhibition in vivo at 15 mg/kg [12]: 31%
inhibition in vivo at 30 mg/kg [13]: 95%
AUC [14]: 2140 ng·h/mL
AUC [15]: 4190 ng·h/mL
Activity [16]: Non-toxic
inhibition [17]: Active
Vd [18]: 0.72 L/kg
half-life [19]: 1.81 h
Cmax [20]: 797 ng/mL
bioavailability [21]: 35.7%
Activity [22]: Non-toxic
Activity [23]: Non-toxic
Activity [24]: Toxic
Activity [25]: Non-toxic
Activity [26]: Toxic
Activity [27]: Non-toxic
Activity [28]: Non-toxic
Activity [29]: Non-toxic
Activity [30]: Non-toxic
Activity [31]: Non-toxic
half-life [32]: 3.5 h
AUCt [33]: 7120 ng·h/mL
